How the values were obtained:
[1] = tested on: p110α; design: method as in PMID 23903756; details: 1 μM; cited from earlier work
[2] = tested on: PI3K/AKT/mTOR signalling pathway; assay: Western blotting, PI3K/AKT/mTOR signalling in S18 and C666-1; assay type: cell-based
From the text: (§1) We used standard approaches and methods for Western blotting (WB) analyses. In brief, nasopharyngeal carcinoma cells were lysed on ice in Pierce RIPA buffer (Thermo Scientific) containing a Halt protease inhibitor cocktail (Sigma-Aldrich) and phosphatase inhibitors (Keygen Biotech). We measured protein concentration using a Beyotime protein assay protocol following the manufacturer’s instructions. Proteins were separated by using sodium dodecyl sulfate polyacrylamide gel electrophoresis and were then transferred to polyvinylidene difluoride membranes (0.45 µm; Millipore). […] The total S6, AKT, and mTOR antibodies were used on the same blots as the respective phosphorylated proteins after stripping (stripping buffer, CWBIO, China). All primary antibodies were diluted in Tris-buffered saline containing Tween 20 and 5% bovine serum albumin (BSA), and a peroxidase conjugate (Bioworld) was used as the secondary antibody. Anti-β-actin (20536-I, Proteintech) was used as a loading control. Immuno-reactive bands were visualized using an enhanced chemo-luminescence kit (Thermo Fisher Scientific), and images were captured using a ChemiDoc™ XRS molecular imager (Bio-Rad). Densitometry of band intensity was performed using ImageJ software.

[3] = tested on: phosphorylation of S6, AKT and mTOR; assay: Western blotting, PI3K signalling after BYL719 in sensitive and resistant cell lines; assay type: cell-based; details: sensitive cells (HONE1, CNE1) compared to resistant cells (S18, C666-1, HONE-EBV+)
From the text: as §1, with “All primary antibodies were diluted in Tris-buffered saline containing Tween 20 and 5% bovine serum albumin (BSA), and a peroxidase conjugate (Bioworld) was used as the secondary antibody. Anti-β-actin (20536-I, Proteintech) was used as a loading control.” left out, “Densitometry of band intensity was performed using ImageJ software.” left out
To identify BYL719-insensitive NPC cell lines, the response of 12 NPC cell lines to BYL719 was screened by viability assay (Fig. 5a). […] Both sensitive cell lines increased S-phase arrest and apoptosis rates (as measured by AV staining) compared with the those in the BYL719-insensitive cell lines (Fig. 5b, c). […]

[4] = tested on: HONE1 and CNE1; assay: Viability assay, response to BYL719; assay type: cell-based; details: 1 µM BYL719, 72 h
Experimental: (§2) The effects of casticin on the growth of the 12 cell lines were determined using the Cell Counting Kit-8 (CCK-8) assay (Dojindo, Japan). Briefly, cells were plated in 96-well plates at 4 × 10^3 cells/well in 100 μL and were treated with a gradient of casticin concentrations (0, 1, 2, 4, 8 µM). After incubation for 24, 48, or 72 h, 10 μL of the CCK-8 reagent was added into each well, and the plate was incubated for an additional 1 or 2 h. Next, a microplate reader (Bio-Rad, model 550) was used to detect absorbance at 490 nm in each well. We repeated the experiments three times. Cell viability was calculated using the following formula: […].
To identify BYL719-insensitive NPC cell lines, the response of 12 NPC cell lines to BYL719 was screened by viability assay (Fig. 5a). […] Only two NPC cell lines, HONE1 and CNE1, were sensitive to 1 µM BYL719 after 72 h (Fig. 5a). Both sensitive cell lines increased S-phase arrest and apoptosis rates (as measured by AV staining) compared with the those in the BYL719-insensitive cell lines (Fig. 5b, c). We studied PI3K signalling in three resistant (S18, C666-1 and HONE-EBV+) (Fig. 5d) and two sensitive cell lines (HONE1 and CNE1) after treatment with a gradient of BYL719 concentrations (Fig. 5e). […]

[5] = tested on: C666-1 cells; assay: Cell cycle analysis by flow cytometry, C666-1; assay type: cell-based; details: 8 µM casticin for 24 h
Experimental: (§3) S18 and C666-1 cells were treated with 0, 2, 4, and 8 µM casticin for 24 h. The cells were then collected, washed with phosphate-buffered saline (PBS), and fixed with 75% ethanol overnight. Subsequently, the cells were centrifuged (1500 rpm, 5 min) and incubated with 10 mg/mL RNase and 1 mg/mL propidium iodide (PI) at 37 °C for 30 min in the dark. Finally, we analysed cell cycle distribution by using flow cytometry (FACSCalibur; BD Biosciences, Bedford, MA, USA).

[6] = tested on: panel of 468 kinases; assay: KINOMEscan selectivity profiling; assay type: binding, human; details: 10 μM
Experimental: (§4) Selectivity profiling of casticin against a selected panel of 468 kinases distributed throughout the kinome was performed by DiscoverRx (http://www.discoverx.com/home) using the KINOMEscan screening platform at a test concentration of 10 μM. Since KINOMEscan is a binding assay and may not reflect the inhibitory activity of a compound, the binding constant (Kd) of casticin was calculated from a standard dose–response curve using the Hill equation: Response = Background + (Signal − Background)/[1 + (Kd^Hill Slope/Dose^Hill Slope)]. We then tested casticin in the SelectScreen assay (Invitrogen, USA) to calculate the IC50 of casticin that directly targeted the active site of ATP in PI3K kinase.

[7] = tested on: S18 cells; assay: Cell cycle analysis by flow cytometry, S18; assay type: cell-based; details: 8 µM casticin for 24 h
Experimental: as §3

[8] = tested on: S18 and C666-1 cells; assay: Wound-healing assay; assay type: cell-based; details: vs cells not treated
Experimental: We seeded S18 and C666-1 cells in 6-well plates at 80% to 90% confluence. After a 24-h incubation period, cells were wounded by using a 0.2-mL pipette tip to scratch the subconfluent cell monolayer. Then, we removed the detached cells by washing with PBS just before casticin 16 µM was added to each well of the plate. Cells were maintained in serum-free medium and allowed to migrate for 24 h. An inverted microscope was used to capture cell migration images after 24 h. The speed of migration was determined by dividing the length of the gap and the wound areas in the resultant images.

[9] = tested on: S18, CNE2, C666-1 tumour spheres; assay: 3D tumour sphere formation assay; assay type: cell-based; details: 20 µM casticin for 72 h; vs untreated spheres
Experimental: S18, CNE2, and C666-1 cells (2 × 10^4 each) were cellected, counted and seeded into a cell culture flask with a novel 3D tumour sphere culture system. The 3D tumour sphere culture system with NPC cells was cultured at 37 °C in a humid atmosphere with 5% CO2, the diameters of tumour spheroids were measured when the tumour sphere diameter was ≥ […] [15] and then incubated with 20 µM casticin for 72 h, the original medium was discarded, the cells were cultured for approximately 1 week, and the tumour spheres that were ≥ 100 µm in diameter were counted under a bright field microscope.

[10] = tested on: S18 cells; assay: Transwell migration assay; assay type: cell-based; details: concentration-dependent
[11] = tested on: S18 cells; assay: S18 xenograft mouse model; assay type: in vivo, nude mice
Experimental: (§5) Generation and characterization of the xenograft mouse model were conducted in accordance with the guidelines of the Ministry of Science and Technology of China and were approved by the Animal Ethics Committee of Southern Medical University. All efforts were made to minimize animal suffering during the experiments. Five-week-old nude mice were obtained from the Guangdong Experimental Animal Ccenter. To assess the tumour growth, 5 × 10^6 S18 cells and 1 × 10^7 C666-1 cells were injected subcutaneously into the left or right side of the back of each mouse (three mice per group). When tumours reached approximately 100 mm^3, the mice were randomized to the control and casticin treatment groups. Casticin was diluted in 10% DMSO in normal saline (NS) and injected intraperitoneally at 40 mg/kg daily, while the control group received only NS vehicle. Tumour sizes were measured with a caliper and recorded every 3 days. Tumour volume was calculated as follows: tumour volume = (length × width^2) × 0.5. Body weight was recorded every 2–3 days during the treatment, and the tumour weight was measured at the end of the experiment.

[12] = tested on: C666-1 cells; assay: C666-1 xenograft mouse model; assay type: in vivo, nude mice; details: 40 mg/kg daily i.p.
Experimental: as §5

[13] = tested on: PI3K family, including wild-type and mutant kinases; assay: KINOMEscan binding to PI3K family; design: species or system human; details: 10 μM
Experimental: as §4

[14] = tested on: S18 cells; assay: Annexin V/PI staining assay; assay type: cell-based; details: 48 h
Experimental: For the apoptosis test, S18 and C666-1 cells were treated with casticin at concentrations of 0, 1, 2, and 4 µM and of 0, 2, 4, and 8 µM for 48 h. Next, cells were collected and washed once with PBS. After centrifugation (1500 rpm, 5 min), cells were resuspended in 1× annexin V (AV) binding buffer and incubated with 5 µL of AV and PI at 37 °C for 30 min. Cell apoptosis was evaluated by using flow cytometry (FACSCalibur).

[15] = tested on: normal nasopharyngeal mucosal epithelial cell line NP69; assay: CCK-8 cell viability assay, NP69; assay type: cell-based; details: NP69 cells
Experimental: as §2

[16] = tested on: BCL-2, BAX, p21; assay: Western blotting, cell cycle and apoptosis related proteins; assay type: cell-based
From the text: as §1

[17] = tested on: NPC cell lines; assay: CCK-8 cell viability assay, NPC cell lines; assay type: cell-based
Experimental: as §2

[18] = molecular target: T1, PIK3CA E542K/PIK3R1 (p110 alpha/p85 alpha) (Homo sapiens, UniProt P42336, E542K); assay: SelectScreen biochemical kinase activity assay
T1 construct: purchased Invitrogen (SelectScreen service)
T1 sequence (P42336 whole entry E542K): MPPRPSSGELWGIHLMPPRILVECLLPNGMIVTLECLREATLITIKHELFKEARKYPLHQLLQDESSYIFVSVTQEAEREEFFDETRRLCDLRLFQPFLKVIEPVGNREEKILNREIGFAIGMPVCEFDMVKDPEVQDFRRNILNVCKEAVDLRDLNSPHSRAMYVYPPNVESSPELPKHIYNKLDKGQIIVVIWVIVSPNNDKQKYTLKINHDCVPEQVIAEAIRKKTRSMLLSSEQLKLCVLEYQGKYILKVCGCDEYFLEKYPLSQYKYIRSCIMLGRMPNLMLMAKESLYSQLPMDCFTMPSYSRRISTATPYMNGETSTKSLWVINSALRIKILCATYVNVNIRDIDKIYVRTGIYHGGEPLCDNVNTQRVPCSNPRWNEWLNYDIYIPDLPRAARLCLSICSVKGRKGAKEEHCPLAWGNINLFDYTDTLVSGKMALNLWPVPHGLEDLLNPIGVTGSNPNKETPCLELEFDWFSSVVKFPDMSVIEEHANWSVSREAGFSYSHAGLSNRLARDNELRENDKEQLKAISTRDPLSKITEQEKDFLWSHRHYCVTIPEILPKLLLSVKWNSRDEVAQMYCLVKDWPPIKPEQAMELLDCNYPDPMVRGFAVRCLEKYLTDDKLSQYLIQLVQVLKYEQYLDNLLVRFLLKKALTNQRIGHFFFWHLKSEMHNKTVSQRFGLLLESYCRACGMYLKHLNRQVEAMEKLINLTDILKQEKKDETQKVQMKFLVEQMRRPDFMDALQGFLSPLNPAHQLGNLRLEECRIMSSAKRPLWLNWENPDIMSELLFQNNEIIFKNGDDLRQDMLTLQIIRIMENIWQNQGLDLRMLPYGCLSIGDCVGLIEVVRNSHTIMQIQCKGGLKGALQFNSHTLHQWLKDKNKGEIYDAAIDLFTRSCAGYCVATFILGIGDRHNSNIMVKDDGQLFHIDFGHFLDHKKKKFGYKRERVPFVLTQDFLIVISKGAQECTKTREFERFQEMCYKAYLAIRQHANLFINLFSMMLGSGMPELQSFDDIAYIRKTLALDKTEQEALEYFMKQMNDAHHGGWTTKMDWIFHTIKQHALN
T1 sequence (P27986 whole entry partner): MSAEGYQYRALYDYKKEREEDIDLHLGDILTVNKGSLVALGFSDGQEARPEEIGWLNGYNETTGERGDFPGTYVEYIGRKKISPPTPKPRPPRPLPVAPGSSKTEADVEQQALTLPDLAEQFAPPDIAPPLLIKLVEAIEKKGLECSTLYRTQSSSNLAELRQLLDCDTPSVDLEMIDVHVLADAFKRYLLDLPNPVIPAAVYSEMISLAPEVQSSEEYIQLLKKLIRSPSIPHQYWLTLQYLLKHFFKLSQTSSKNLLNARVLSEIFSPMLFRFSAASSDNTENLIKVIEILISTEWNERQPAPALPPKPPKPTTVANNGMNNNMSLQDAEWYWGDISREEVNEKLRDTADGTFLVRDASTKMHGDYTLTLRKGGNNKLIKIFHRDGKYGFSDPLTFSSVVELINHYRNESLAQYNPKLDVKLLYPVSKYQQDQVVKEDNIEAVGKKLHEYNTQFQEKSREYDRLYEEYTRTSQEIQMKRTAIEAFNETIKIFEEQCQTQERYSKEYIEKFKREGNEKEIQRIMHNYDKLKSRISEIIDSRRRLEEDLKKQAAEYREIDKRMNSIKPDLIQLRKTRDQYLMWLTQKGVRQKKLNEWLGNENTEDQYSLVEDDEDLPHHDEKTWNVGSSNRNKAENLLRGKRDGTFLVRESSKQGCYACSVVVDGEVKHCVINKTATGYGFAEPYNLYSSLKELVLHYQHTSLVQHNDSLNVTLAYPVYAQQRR
Experimental: as §4

[19] = molecular target: T2, PIK3CA/PIK3R3 (p110a/p55 gamma) (Homo sapiens, UniProt P42336); assay: SelectScreen biochemical kinase activity assay
T2 construct: purchased Invitrogen (SelectScreen service)
T2 sequence (P42336 whole entry): as the sequence (P42336 whole entry E542K) above, with K542E counted along it
Experimental: as §4

[20] = molecular target: T3, PIK3CA E545K/PIK3R1 (p110 alpha E545K/p85 alpha) (Homo sapiens, UniProt P42336, E545K); assay: SelectScreen biochemical kinase activity assay
T3 construct: purchased Invitrogen (SelectScreen service)
T3 sequence (P42336 whole entry E545K): as the sequence (P42336 whole entry E542K) above, with K542E, E545K counted along it
T3 sequence (P27986 whole entry partner): as the sequence (P27986 whole entry partner) above
Experimental: as §4

[21] = molecular target: T4, PIK3CA ( p110 alpha/p85 alpha ) (Homo sapiens, UniProt P42336); assay: SelectScreen biochemical kinase activity assay
T4 construct: purchased Invitrogen (SelectScreen service)
T4 sequence (P42336 whole entry): as the sequence (P42336 whole entry E542K) above, with K542E counted along it
T4 sequence (P27986 whole entry partner): as the sequence (P27986 whole entry partner) above
Experimental: as §4

[22] = tested on: Nanog, sox2, and Oct4; assay: Western blotting, stem cell markers; assay type: cell-based; details: C666-1; 0, 4, 8, 16 µM; 24 h; dose-dependent
From the text: as §1

[23] = tested on: S18 cells; assay: Colony formation assay; assay type: cell-based
Experimental: S18 and C666-1 cells were incubated in 6-well plates with either 0, 1, 2, and 4 µM casticin for 12 h with 1 µM casticin for 0, 6, 12, and 24 h. There after, 500 cells were seeded in each well of a 6-well plate and cultured without casticin for 8–10 days. Subsequently, the cells were fixed with methanol and stained with haematoxylin. After washing and drying, colonies with more than 50 cells were counted under a microscope (Leica, Wetzlar, Germany).

[24] = 40 mg/kg daily i.p., vs NS group
[25] = read-out: Inhibited kinase activity(%) at 1μM of Casticin

SMILES: Cc1nc(NC(=O)N2CCC[C@H]2C(N)=O)sc1-c1ccnc(C(C)(C)C(F)(F)F)c1 [BYL719]
- block of p110 subunits [1]: blocked p110α without affecting the other p110 subunits
- phosphorylation of ATK (Ser473 and Thr308) or mTORC1 ([2]; BYL719 1 µM alone, 12 h): did not reduce
- phosphorylation of S6, AKT and mTOR [3]: significantly reduced
- sensitivity class by viability (IC50 cut-off 1 μM) [4]: sensitive

SMILES: COc1ccc(-c2oc3cc(OC)c(OC)c(O)c3c(=O)c2OC)cc1O [casticin, 3′,5-dihydroxy-3,4′,6,7-tetramethoxyflavone]
- percentage of cells in the G2/M phase [5]: 62.54 ± 4.91%
- S score (1) [6]: 0.01
- binding to other kinases ([6]; KINOMEscan): did not demonstrate strong binding
- percentage of cells in the G2/M phase [7]: 62.90 ± 1.97%
- gap-closing speeds [8]: significantly decreased
- tumour sphere growth [9]: significant reduction in tumour growth
- number of migrating cells [10]: significantly reduced
- damage to the liver or kidney (haematoxylin and eosin histopathology) ([11]; 40 mg/kg daily i.p.): without any obvious subsequent damage to the liver or kidney
- tumour size ([11]; 40 mg/kg daily i.p. for 12 days, 18 days after implantation): smaller than those in the control group
- tumour growth rate (tumour volume) [11, 24]: lower than NS group
- tumour weight [11, 24]: lighter than NS group
- ratios of liver and kidney weight to body weight ([11]; S18 model, 40 mg/kg daily i.p.): not statistically significant between groups
- phosphorylation of AKT (T308, S473) and mTOR (Ser2481, Ser2448) ([2]; 24 h, increasing casticin concentrations, dose-dependent): significant reduction
- tumour growth and liver/kidney histology in C666-1 in vivo model [12]: findings similar to those with the S18 model
- percent control number [13]: less than 1
- early and late apoptosis ([14]; 1 μM): significantly increased
- apoptotic frequency ([14]; 4 μM): approximately 75%
- effect on cell growth compared to BYL719 [15]: less effective
- cell viability ([15]; gradient of concentrations, 24, 48, 72 h): resistant
- p21 expression ([16]; S18 and C666-1, 24 h): increased
- BCL-2/BAX ratio ([16]; casticin-treated S18 and C666-1 cells): significantly decreased in a dose-dependent manner
- IC50 on viability compared with BYL719 ([17]; 12 NPC cell lines, 24 h): lower than that of BYL719
- cell viability ([17]; eleven NPC cell lines, gradient of concentrations, 24, 48, 72 h, concentration-dependent): decreased
- IC50 [18]: 306 nM
- inhibition at 1 µM [18, 25]: 57%
- IC50 [19]: 574 nM
- inhibition at 1 µM [19, 25]: 46%
- IC50 [20]: 544 nM
- inhibition at 1 µM [20, 25]: 54%
- IC50 ([21]; PI3K (p110α/p85α)): 616 nM
- inhibition at 1 µM [21, 25]: 56%
- expression of tumour stemness markers Nanog, sox2, Oct4 [22]: reduced expression
- clonogenic ability ([23]; 1 µM casticin, vs control group): diminished as early as 6 h
- clonogenic activity ([23]; S18 cells, 0, 1, 2, 4 µM for 12 h): significant reduction

— paper PMC6925493, “Casticin inhibits nasopharyngeal carcinoma growth by targeting phosphoinositide 3-kinase” (Cancer Cell International, 2019)
